Experiments:
[1] = test system: common wart; experiment: Treatment of warts II: gelled aqueous dithionite solution applied to a wart; type: in vivo, person; conditions: several drops of freshly prepared aqueous solution containing 2.0 % by weight of hydroxypropylmethyl cellulose; back of hand; rinsed after half an hour; wart wetted three hours from application; wooden spatula
From the text: Treatment of warts II. Several drops of freshly prepared aqueous solution of sodium dithionite containing 2.0 % by weight of hydroxypropylmethyl cellulose are applied to a common wart on the back of a persons hand. After half an hour the hand is rinsed with water. Three hours from application the wart is wetted.

[2] = test system: epithelial cells; experiment: Epithelial cytotoxicity cell assay; type: cell-based; conditions: AIM V medium

**Q.** Which “removability of the wart” value [1] does the source give for `O=S([O-])S(=O)[O-].[Na+].[Na+]` [sodium dithionite] here?
**A.** easily removed

**Q.** What about the “effect on the cells (cytotoxicity)” value ([2]; highest concentration) of the same compound?
**A.** substantial cell death

**Q.** And the “effect on the cells (cytotoxicity)” value ([2]; lowest concentration, 0.001 g/mL)?
**A.** did not affect the cells

— patent publication EP2043663B1, “TOPICAL TREATMENT OF WARTS” (ITH Immune Therapy Holdings AB, priority 2006, dated 2008)
